# Reference: the supplement of paper PMC4862054
# How the values were obtained:
# Conditions in all cases: incubation time: 72 h
# CAL-148 [1] = assay: normalised viability (% of control), CellTiter-Blue; higher = more viable cells (about 100 = DMSO control)
# Procedure: (§1)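 DSRT, CellTiter-Blue viability, 72 h incubation. Signal is normalised to DMSO and benzethonium chloride controls. Value is the normalised response at dose 9.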
# CAL-51 [2] = assay: as above
# Procedure: as §1
# CAL-85-1 [3] = assay: as above
# Procedure: as §1
# DU-4475 [4] = assay: as above
# Procedure: as §1
# HDQ-P1 [5] = assay: as above
# Procedure: as §1
# MDA-MB-453 [6] = assay: as above
# Procedure: as §1
# BT-474 = assay: normalised response (% of control), CellTiter-Glo; higher = more viable cells (100 = DMSO, 0 = benzethonium chloride kill control)
# Procedure: (§2)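 DSRT, 72 h incubation, CellTox Green / CellTiter-Glo readout. Signal is normalised to DMSO and benzethonium chloride controls. Value is the normalised response at the highest dose.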
# BT-549 = assay: as above
# Procedure: as §2
# CAL-120 = assay: as above
# Procedure: as §2
# CAL-148 [7] = assay: as above
# Procedure: as §2
# CAL-51 [8] = assay: as above
# Procedure: as §2
# DU-4475 [9] = assay: as above
# Procedure: as §2
# HCC1143 = assay: as above
# Procedure: as §2
# HCC1599 = assay: as above
# Procedure: as §2
# HCC1937 = assay: as above
# Procedure: as §2
# HDQ-P1 [10] = assay: as above
# Procedure: as §2
# Hs578T = assay: as above
# Procedure: as §2
# MDA-MB-231 = assay: as above
# Procedure: as §2
# MDA-MB-436 = assay: as above
# Procedure: as §2
# MDA-MB-453 [11] = assay: as above
# Procedure: as §2
# MDA-MB-468 = assay: as above
# Procedure: as §2
# MFM-223 = assay: as above
# Procedure: as §2
# SK-BR-3 = assay: as above
# Procedure: as §2
# CAL-148 [12] = assay: normalised viability (% of control), CellTiter-Blue; higher = more viable cells (about 100 = DMSO control); remark: listed apart in the source
# Procedure: (§3)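 DSRT, CellTiter-Blue viability, 72 h incubation. Signal is normalised to DMSO and benzethonium chloride controls. Value is the normalised response at dose 7.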
# CAL-51 [13] = assay: as above; remark: listed apart in the source
# Procedure: as §3
# CAL-85-1 [14] = assay: as above; remark: listed apart in the source
# Procedure: as §3
# DU-4475 [15] = assay: as above; remark: listed apart in the source
# Procedure: as §3
# HDQ-P1 [16] = assay: as above; remark: listed apart in the source
# Procedure: as §3
# MDA-MB-453 [17] = assay: as above; remark: listed apart in the source
# Procedure: as §3
Structure (SMILES),normalised viability (CAL-148 [1]),normalised viability (CAL-51 [2]),normalised viability (CAL-85-1 [3]),normalised viability (DU-4475 [4]),normalised viability (HDQ-P1 [5]),normalised viability (MDA-MB-453 [6]),normalised response (BT-474),normalised response (BT-549),normalised response (CAL-120),normalised response (CAL-148 [7]),normalised response (CAL-51 [8]),normalised response (DU-4475 [9]),normalised response (HCC1143),normalised response (HCC1599),normalised response (HCC1937),normalised response (HDQ-P1 [10]),normalised response (Hs578T),normalised response (MDA-MB-231),normalised response (MDA-MB-436),normalised response (MDA-MB-453 [11]),normalised response (MDA-MB-468),normalised response (MFM-223),normalised response (SK-BR-3),normalised viability (CAL-148 [12]),normalised viability (CAL-51 [13]),normalised viability (CAL-85-1 [14]),normalised viability (DU-4475 [15]),normalised viability (HDQ-P1 [16]),normalised viability (MDA-MB-453 [17])
Cc1sc2c(c1C)C(c1ccc(Cl)cc1)=N[C@@H](CC(=O)OC(C)(C)C)c1nnc(C)n1-2 [(+)JQ1] (10000 nM),27.6%,68.3%,44.4%,1.08%,108%,18.3%,66.1%,35.7%,78%,49.1%,47.5%,20.4%,58.3%,85.5%,68.2%,71.1%,41.3%,64.2%,76.4%,32.6%,36.6%,45.1%,53.2%,–,–,–,–,–,–
CC1=C2C[C@H]3[C@@H](CC=C4C[C@@H](O)CC[C@@]43C)[C@@H]2CC[C@]12O[C@@H]1C[C@H](C)CN[C@H]1[C@H]2C [Cyclopamine] (10000 nM),116%,102%,94.8%,107%,148%,119%,113%,58%,103%,110%,106%,105%,93.2%,107%,97.1%,86%,101%,106%,84.6%,103%,51.5%,101%,102%,–,–,–,–,–,–
COc1cc2c(cc1O)CC[C@@H]1[C@@H]2CC[C@]2(C)[C@@H](O)CC[C@@H]12 [2-methoxyestradiol] (1000 nM),–,–,–,–,–,–,–,–,–,–,–,–,–,–,–,–,–,–,–,–,–,–,–,89.7%,107%,86.8%,89.5%,83%,53.3%
CC1=C2C[C@H]3[C@@H](CC=C4C[C@@H](O)CC[C@@]43C)[C@@H]2CC[C@]12O[C@@H]1C[C@H](C)CN[C@H]1[C@H]2C [Cyclopamine] (1000 nM),–,–,–,–,–,–,–,–,–,–,–,–,–,–,–,–,–,–,–,–,–,–,–,119%,110%,92.2%,121%,127%,86.8%
CC[C@@H]1C(=O)OC[C@@H]1Cc1cncn1C [Pilocarpine] (40000 nM),73.2%,84.5%,64.4%,68.7%,135%,43.7%,91.6%,102%,91.2%,88.6%,134%,95.7%,89.6%,104%,96.7%,91.9%,99%,93.4%,89.7%,92.7%,96%,97.6%,102%,–,–,–,–,–,–
Cn1cc(C2=Nc3cc(NC(=O)C(N)C4CCCCC4)cc4c3C2=CNNC4=O)cn1 (configuration not stated) (10000 nM),28.1%,30%,48.9%,41.9%,35.2%,16.3%,38.3%,12.1%,42.8%,53.1%,25.2%,48.4%,14.7%,10.9%,21.2%,48.6%,26.6%,37.3%,22.6%,46.6%,12.4%,50.4%,8.5%,–,–,–,–,–,–
Cn1cc(C2=Nc3cc(NC(=O)C(N)C4CCCCC4)cc4c3C2=CNNC4=O)cn1 (configuration not stated) (1000 nM),–,–,–,–,–,–,–,–,–,–,–,–,–,–,–,–,–,–,–,–,–,–,–,62.4%,87.8%,64%,72.1%,67.1%,36.9%
CC1(C)CNc2cc(NC(=O)c3cccnc3NCc3ccncc3)ccc21 [Motesanib] (1000 nM),–,–,–,–,–,–,–,–,–,–,–,–,–,–,–,–,–,–,–,–,–,–,–,90.3%,105%,79.8%,99.5%,78.1%,75.4%
Nc1nc2[nH]cnc2c(=S)[nH]1 [Thioguanine] (1000 nM),–,–,–,–,–,–,–,–,–,–,–,–,–,–,–,–,–,–,–,–,–,–,–,93.4%,108%,79.2%,117%,85.2%,95.2%
